Source: the supplement of paper PMC10307832

Assays:
Assay in all cases: relative viability (nuclei count vs DMSO), 5 days (fraction); higher = more cells survive
Tipifarnib + Trametinib = compound: Cn1cncc1[C@@](N)(c1ccc(Cl)cc1)c1ccc2c(c1)c(-c1cccc(Cl)c1)cc(=O)n2C [Tipifarnib] + CC(=O)Nc1cccc(-n2c(=O)n(C3CC3)c(=O)c3c(Nc4ccc(I)cc4F)n(C)c(=O)c(C)c32)c1 [Trametinib] (partner 0.02 µM)
Outline: (§1)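 The day after seeding in 1536-well plates, lung cancer cell lines were treated by pin tool with a single drug, or with a fixed anchor-drug dose together with five library-drug doses (not always all listed) in √10 steps. After 5 days, a combined fix-and-stain solution (final 0.05% Triton X-100, 1% formaldehyde, 1 ug/ml Hoechst) was added. Nuclei counted on 4× images gave relative viability as treated counts over vehicle counts, reported as the median of duplicate plates.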

Tipifarnib + Lapatinib = compound: Cn1cncc1[C@@](N)(c1ccc(Cl)cc1)c1ccc2c(c1)c(-c1cccc(Cl)c1)cc(=O)n2C [Tipifarnib] + CS(=O)(=O)CCNCc1ccc(-c2ccc3ncnc(Nc4ccc(OCc5cccc(F)c5)c(Cl)c4)c3c2)o1 [Lapatinib] (partner 2 µM)
Outline: as §1

Tipifarnib + Phenformin = compound: Cn1cncc1[C@@](N)(c1ccc(Cl)cc1)c1ccc2c(c1)c(-c1cccc(Cl)c1)cc(=O)n2C [Tipifarnib] + N=C(N)NC(=N)NCCc1ccccc1 [Phenformin] (partner 250 µM)
Outline: as §1

Tipifarnib + Olaparib = compound: Cn1cncc1[C@@](N)(c1ccc(Cl)cc1)c1ccc2c(c1)c(-c1cccc(Cl)c1)cc(=O)n2C [Tipifarnib] + O=C(c1cc(Cc2n[nH]c(=O)c3ccccc23)ccc1F)N1CCN(C(=O)C2CC2)CC1 [Olaparib] (partner 8 µM)
Outline: as §1

| Cell Line | relative viability (Tipifarnib + Trametinib; first compound 0.01 µM) | relative viability (Tipifarnib + Trametinib; first compound 0.03162 µM) | relative viability (Tipifarnib + Trametinib; first compound 0.1 µM) | relative viability (Tipifarnib + Trametinib; first compound 0.3162 µM) | relative viability (Tipifarnib + Trametinib; first compound 1 µM) | relative viability (Tipifarnib + Lapatinib; first compound 0.01 µM) | relative viability (Tipifarnib + Lapatinib; first compound 0.03162 µM) | relative viability (Tipifarnib + Lapatinib; first compound 0.1 µM) | relative viability (Tipifarnib + Lapatinib; first compound 0.3162 µM) | relative viability (Tipifarnib + Lapatinib; first compound 1 µM) | relative viability (Tipifarnib + Phenformin; first compound 0.01 µM) | relative viability (Tipifarnib + Phenformin; first compound 0.03162 µM) | relative viability (Tipifarnib + Phenformin; first compound 0.1 µM) | relative viability (Tipifarnib + Phenformin; first compound 0.3162 µM) | relative viability (Tipifarnib + Phenformin; first compound 1 µM) | relative viability (Tipifarnib + Olaparib; first compound 0.01 µM) | relative viability (Tipifarnib + Olaparib; first compound 0.03162 µM) | relative viability (Tipifarnib + Olaparib; first compound 0.1 µM) | relative viability (Tipifarnib + Olaparib; first compound 0.3162 µM) | relative viability (Tipifarnib + Olaparib; first compound 1 µM) |
| --- | --- | --- | --- | --- | --- | --- | --- | --- | --- | --- | --- | --- | --- | --- | --- | --- | --- | --- | --- | --- |
| HCC-827 | 0.529 | 0.598 | 0.481 | 0.479 | 0.504 | 0.184 | 0.208 | 0.152 | 0.186 | 0.172 | 0.425 | 0.413 | 0.406 | 0.34 | 0.376 | 0.68 | 0.693 | 0.545 | 0.443 | 0.478 |
| HCC-78 | 0.966 | 0.766 | 0.647 | 0.623 | 0.664 | 0.661 | 0.633 | 0.514 | 0.54 | 0.37 | 0.699 | 0.756 | 0.611 | 0.558 | 0.423 | 0.93 | 1.01 | 0.863 | 0.758 | 0.636 |
| NCI-H2085 | 0.58 | 0.603 | 0.44 | 0.408 | 0.366 | 0.846 | 0.659 | 0.633 | 0.523 | 0.533 | 0.777 | 0.442 | 0.433 | 0.385 | 0.532 | 0.823 | 0.758 | 0.613 | 0.513 | 0.7 |
| PC-14 | 0.579 | 0.357 | 0.447 | 0.2 | 0.334 | 0.346 | 0.327 | 0.242 | 0.226 | 0.15 | 0.512 | 0.494 | 0.282 | 0.239 | 0.128 | 0.278 | 0.206 | 0.279 | 0.176 | 0.176 |
| NCI-H2342 | 0.778 | 0.968 | 0.803 | 0.547 | 0.65 | – | – | – | – | – | 0.676 | 0.649 | 0.491 | 0.487 | 0.399 | 0.536 | 0.463 | 0.425 | 0.371 | 0.396 |
| A-427 | 0.872 | 0.758 | 0.633 | 0.654 | 0.549 | 1 | 1.13 | 1.08 | 0.893 | 0.46 | 0.31 | 0.272 | 0.319 | 0.227 | 0.226 | 0.834 | 0.696 | 0.697 | 0.694 | 0.727 |
| H3255 | 0.674 | 0.576 | 0.542 | 0.458 | 0.471 | 0.249 | 0.3 | 0.27 | 0.232 | 0.214 | 0.376 | 0.436 | 0.395 | 0.344 | 0.353 | 0.606 | 0.509 | 0.457 | 0.397 | 0.402 |
| HCC-44 | 0.992 | 0.942 | 0.908 | 0.781 | 0.891 | 0.876 | 0.898 | 0.853 | 0.767 | 0.494 | 0.214 | 0.107 | 0.166 | 0.18 | 0.109 | 0.973 | 0.925 | 0.993 | 0.957 | 0.942 |
| NCI-H1734 | 0.66 | 0.555 | 0.556 | 0.478 | 0.407 | 1.18 | 0.995 | 0.682 | 0.618 | 0.431 | 0.391 | 0.352 | 0.373 | 0.251 | 0.275 | 0.626 | 0.615 | 0.54 | 0.494 | 0.482 |
| NCI-H2228 | 0.542 | 0.378 | 0.385 | 0.303 | 0.177 | 1.02 | 0.705 | 0.782 | 0.444 | 0.315 | 0.25 | 0.286 | 0.379 | 0.222 | 0.138 | 0.84 | 0.523 | 0.471 | 0.386 | 0.478 |
| ABC-1 | – | – | – | – | – | 1.37 | 1.39 | 1.58 | 1.39 | 1.59 | 0.241 | – | 0.264 | 0.242 | 0.231 | 0.7 | 0.776 | 0.819 | 0.986 | 0.912 |
| COR-L23 | 0.609 | 0.301 | 0.329 | 0.33 | 0.277 | 0.942 | 0.641 | 0.739 | 0.582 | 0.4 | 0.469 | 0.351 | 0.361 | 0.305 | 0.238 | 0.403 | 0.289 | 0.335 | 0.255 | 0.258 |
| ChaGo-K-1 | 0.96 | 0.942 | 0.868 | 0.853 | 0.674 | – | – | – | – | – | 0.451 | 0.518 | 0.464 | 0.412 | 0.273 | 0.455 | 0.406 | 0.459 | 0.419 | 0.373 |
| EBC-1 | – | – | – | – | – | 0.199 | 0.214 | 0.2 | 0.188 | 0.215 | – | – | – | – | – | 0.648 | 0.411 | 0.332 | 0.228 | 0.229 |
| NCI-H441 | 0.429 | 0.319 | 0.372 | 0.228 | 0.225 | – | – | – | – | – | 0.984 | 0.619 | 0.465 | 0.525 | 0.329 | 0.651 | 0.39 | 0.523 | 0.306 | 0.277 |
| A549 | – | – | – | – | – | 1.09 | 0.793 | 0.643 | 0.439 | 0.302 | 0.181 | 0.116 | 0.108 | 0.0861 | 0.0622 | 0.265 | 0.276 | 0.245 | 0.219 | 0.109 |
| NCI-H1703 | – | – | – | – | – | 0.78 | 0.706 | 0.253 | 0.319 | 0.417 | – | – | – | – | – | 0.427 | 0.266 | 0.16 | 0.176 | 0.17 |
| LCLC-103H | 0.649 | 0.674 | 0.646 | 0.642 | 0.667 | – | – | – | – | – | 0.326 | 0.319 | 0.275 | 0.267 | 0.295 | 0.81 | 0.759 | 0.785 | 0.708 | 0.739 |
| NCI-H1563 | – | – | – | – | – | 1 | 0.956 | 1.02 | 0.891 | 0.879 | 0.631 | 0.696 | 0.655 | 0.637 | 0.577 | – | – | – | – | – |
